# Values of other authors as cited in US20230338417A1, “Improved Pharmaceutical Preparation” (priority 2020, published 2023).
row,Compound,Acid dissociation constant as pKa at 298K
1,[O-][Cl+2]([O-])O [chloric acid],0
2,peroxochloric acid,approx. 6.2
